Measurements taken from US8383609B2, “Phosphorus containing heterocyclic compounds, sugar analogues, and compositions having anti-cancer activity containing the same” (Centre National de la Recherche Scientifique, priority 2007, dated 2013).
pIC50: −log10 of the molar value. Read-outs that look alike come from different tables or passages of the source.

Legend:
[1] = tested on: astrocyte primary cultures from the cortex of a newborn rat; assay: Cytotoxicity on the non modified astrocytes, so called healthy cells (quantitative assay); details: second day after addition, 50 μM to 24 nM
[2] = tested on: C6 Cells from glioblastomas of rats; assay: Cytotoxicity on the C6 cell line (quantitative neutral red assay)
[3] = tested on: spontaneously converted astrocytes collected from the cortex of a newborn rat; assay: Cytotoxicity on the spontaneously converted astrocytes (qualitative assay, microscopic observation); assay type: cell-based; details: microscopic observation each day for four days, 50 μM to 400 nM
Description: a) Spontaneously converted astrocytes collected from the cortex of a newborn rat (see Bochelen D., Langley K., Adamczyk M., Kupfberg, Hor F., Vincendon G., Mersel M., J. Neurosci. Res., 2000, 62, 99-111), that is to say from normal glial cells maintained in culture and that became able to divide to infinity. These cells are not able to induce tumors after implantation in the rat but did avoid the cell cycle regulation. This cell line was maintained in culture in culture flasks in the presence of 5 mL of culture medium MH5 comprising 70% of MEM and 30% of a Hanks solution. This medium was supplemented with 5% of foetal calf serum. The culture medium was changed every three days. Cells were incubated at 37° C. in an air/CO2 atmosphere (95/5). For the experiments, a replanting was effected after removal of the culture medium, cells were treated for 4 to 5 minutes with trypsine (0.1%). The cell suspension was then placed in 5 mL of fresh medium, 50 μL of this solution were collected to perform the cell counting. […]
These assays conducted on compounds 3.28, 3.8, 3.5. […] The effect was evaluated by simple microscopic observation of the culture plates. […] The evaluated compounds did present an activity at a very low concentration. An activity could be observed after 72 h to 96 h (days 3 and 4) for the whole evaluated compounds.

[4] = tested on: astrocyte primary cultures from the cortex of a newborn rat
[5] = C6 cell line, high concentration

In the case of `Cc1ccc(N[C@H]2[C@H]3OC(C)(C)O[C@H]3[C@@H]([C@H]3COC(C)(C)O3)O[P@@]2(=O)c2ccccc2)cc1` [Compound 3.30a, 4-(2,2-Dimethyl-[1,3]dioxolan-4-yl)-2,2-dimethyl-2-oxo-2-phenyl-tetrahydro-6λ*5*-[1,3]dioxolo[4,5-d][1,2]oxaphosphinan-3-aminotoluyl], the “cytotoxicity on healthy cells (cell viability)” value (“cytotoxicity on healthy cells” below) [1] was “did not show any significative effect”, the “mortality of C6 cells when highly concentrated” value (“mortality of C6 cells” for short) [2, 5] was “total mortality” and the pIC50 ([2]; Rattus norvegicus, C6, 48 h) was 5.30 to 6.30.
With `COc1ccc([P@]2(=O)O[C@H](COCc3ccccc3)[C@@H](OCc3ccccc3)[C@H](OCc3ccccc3)C2O)cc1` (some centres unmarked) [Compound 3.51a, 4,5-bis-benzyloxy-6-benzyloxymethyl-2-(p-methoxy)phenyl-2-oxo-2λ^5-[1,2]oxaphosphinan-3-ol] the “cytotoxicity on healthy cells” value [1] was “did not show any significative effect”, the “mortality of C6 cells” value [2, 5] was “total mortality” and the pIC50 ([2]; Rattus norvegicus, C6, 48 h) was 5.30 to 7.00.
With “6-(1,2-dihydroxy-ethyl)-2,2-dimethyl-2-oxo-2-diethoxymethyl-tetrahydro-6λ*5*-[1,3]dioxolo[4,5-d][1,2]oxaphosphinan-3-tosyl [Compound 3.6]” the pIC50 ([2]; C6 cell line, neutral red cell viability, measures conducted on day 2 or 3) was 5.82.
Work on `CC1(C)O[C@H]2[C@@H]([C@H]3COC(C)(C)O3)O[P@@](=O)(c3ccccc3)[C@@H](Oc3ccc([N+](=O)[O-])cc3)[C@H]2O1` [Compound 3.9a, 4-(2,2-Dimethyl-[1,3]dioxolan-4-yl)-2,2-dimethyl-2-oxo-2-phenyl-tetrahydro-6λ*5*-[1,3]dioxolo[4,5-d][1,2]oxaphosphinan-3-oxy-p-nitrophenyl] yielded a pIC50 ([2]; Rattus norvegicus, C6, 48 h) of 6.00 to 6.40.
`Cc1ccc(N[C@H]2[C@H]3OC(C)(C)O[C@H]3[C@@H]([C@H]3COC(C)(C)O3)O[P@@]2(=O)c2ccccc2)cc1` [Compound 3.30b, 4-(2,2-Dimethyl-[1,3]dioxolan-4-yl)-2,2-dimethyl-2-oxo-2-phenyl-tetrahydro-6λ*5*-[1,3]dioxolo[4,5-d][1,2]oxaphosphinan-3-aminotoluyl] was tested, and the “cytotoxicity on healthy cells” value [1] was “absence of cytotoxicity”.
For `CC1(C)O[C@H]2[C@@H]([C@H]3COC(C)(C)O3)O[P@@](=O)(c3ccccc3)[C@@H](NCc3ccccc3)[C@H]2O1` [Compound 3.28, 4-(2,2-Dimethyl-[1,3]dioxolan-4-yl)-2,2-dimethyl-2-oxo-2-phenyl-tetrahydro-6λ*5*-[1,3]dioxolo[4,5-d][1,2]oxaphosphinan-3-aminobenzyl], the “cytotoxic activity on spontaneously converted astrocytes” value [3] was “cytotoxic activity”, the “cytotoxicity on healthy cells” value [1] was “absence of cytotoxicity” and the pIC50 ([2]; Rattus norvegicus, C6, 48 h) was 5.30 to 6.10.
`O=[N+]([O-])c1ccc([P@]2(=O)O[C@H](COCc3ccccc3)[C@@H](OCc3ccccc3)[C@H](OCc3ccccc3)C2O)cc1` (single isomer, unassigned) [Compound 3.52, 4,5-bis-benzyloxy-6-benzyloxymethyl-2-(p-nitro)phenyl-2-oxo-2λ^5-[1,2]oxaphosphinan-3-ol] was tested, and the “cytotoxicity on healthy cells” value [1] was “absence of cytotoxicity” and the pIC50 ([2]; Rattus norvegicus, C6, 48 h) was 5.30 to 7.00.
With `CCOC(OCC)P1(=O)O[C@H]([C@H]2COC(C)(C)O2)[C@@H]2OC(C)(C)O[C@@H]2C1O` (some centres unmarked) [Compound 3.19a, 4-(2,2-Dimethyl-[1,3]dioxolan-4-yl)-2,2-dimethyl-2-oxo-2-diethoxymethyl-tetrahydro-6λ*5*-[1,3]dioxolo[4,5-d][1,2]oxaphosphinan-3-ol] the “cytotoxic activity on spontaneously converted astrocytes” value [3] was “cytotoxic activity”.
`CC1(C)O[C@H]2[C@@H]([C@H]3COC(C)(C)O3)O[P@@](=O)(c3ccccc3)[C@@H](OC(=N)C(Cl)(Cl)Cl)[C@H]2O1` [Compound 3.57, 4-(2,2-Dimethyl-[1,3]dioxolan-4-yl)-2,2-dimethyl-2-oxo-2-phenyl-tetrahydro-6λ*5*-[1,3]dioxolo[4,5-d][1,2]oxaphosphinan-3-imidate] was tested, and the “cytotoxicity on healthy cells” value [4] was “did not show any significative effect”, the “cell death of healthy cells” value ([4]; rat) was ≤ 20% and the “mortality of C6 cells” value [2] was “total mortality”. For the same compound, the pIC50 ([2]; Rattus norvegicus, C6, 48 h) was 5.30 to 7.00.
With `O=[P@@]1(c2ccccc2)O[C@H](COCc2ccccc2)[C@@H](OCc2ccccc2)[C@H](OCc2ccccc2)C1O` (some centres unmarked) [Compound 3.48a, 4,5-bis-benzyloxy-6-benzyloxymethyl-2-phenyl-2-oxo-2λ^5-[1,2]oxaphosphinan-3-ol] the pIC50 ([2]; Rattus norvegicus, C6, 48 h) was 5.70 to 6.00.
